{"source": "patent US9273006B2", "about": "“Anabolic compounds for treating and preventing bone loss diseases” (SYDDANSK UNIVERSITET, priority 2012, dated 2016)", "key": {"[1]": {"tested_on": "hMSC-TERT", "test": "In vitro osteoblast differentiation in OIM (ALP activity, alizarin red, qRT-PCR)", "type": "cell-based, human", "procedure": "(§1) F) H-8 enhances ALP activity of hMSC, in the absence of serum.\nAdding H-8 (25 μM) to the osteogenic induction media, during 9-days in vitro hMSC osteogenic differentiation, enhanced expression of osteoblastic markers as shown by qRT-PCR analysis. **P≦0.05, ***P≦0.005 (significant difference as compared to vehicle).\nH-8 was added (25 μM) to the OIM at different time points during 12-days period.\n(§2) In order to confirm the results obtained from the initial screen, the present inventors incubated hMSC-TERT and primary human bone marrow derived MSC (hBMSC) in osteogenic induction medium (OIM) supplemented with H-8 (dose range 1-30 μM) or vehicle. […] To determine the stage of differentiation at which the effect of H-8 was most apparent, the present inventors added H-8 (25 μM) to the OIM at different time points during 12-days period."}, "[2]": {"tested_on": "primary human bone marrow derived MSC (hBMSC)", "test": "In vitro osteoblast differentiation in OIM (ALP activity, alizarin red)", "type": "cell-based", "settings": "dose range 1-30 μM", "procedure": "as §1, §2"}, "[3]": {"tested_on": "human adipose tissue derived MSC (hAT-MSC)", "test": "In vitro osteoblast differentiation (ALP activity, alizarin red)", "type": "cell-based"}, "[4]": {"tested_on": "hMSC", "test": "hMSC survival in vitro, western blot of activated Caspase-3", "type": "cell-based, human", "settings": "25 μM, during osteoblast differentiation", "procedure": "A) H-8 treatment of hMSC (25 μM) during osteoblast differentiation, decreased apoptosis, as shown by western blot analysis of activated Caspase-3.\nTo investigate the effect of H-8 on hMSC survival in vitro, activation of Caspase-3 was evaluated, using western blot analysis."}, "[5]": {"tested_on": "hMSC implanted in mouse calvarial defect", "test": "hMSC survival in vivo, mouse calvarial defect model", "settings": "4 weeks after implantation of treated hMSC"}, "[6]": {"tested_on": "hMSC-TERT implants in SCID/NOD mice", "test": "In vivo heterotopic bone formation of hMSC-TERT implanted with HA/TCP", "procedure": "(A) Treatment of hMSC-TERT4 with H-8 (25 μM) for 7 days in vitro enhanced the in vivo heterotopic bone formation ability of the cells. (B) Systemic injection of H-8 at 30 mg/kg/day enhanced the amount of the heterotopic bone formed by hMSC-TERT4 implanted in SCID/NOD mice. (C) Human specific Vimentin staining confirmed that the newly formed heterotopic bone is of human origin. *P≦0.05 (significant difference as compared to vehicle).\nTo determine the effect of H-8 treatment on the ability of hMSC to form heterotopic bone in vivo, hMSC-TERT were treated with H-8 (25 μM) or vehicle for 7 days, mixed with hydroxyapatite/tricalcium phosphate (HA/TCP) as osteoconductive carrier, and implanted subcutaneously in SCID/NOD mice. […] Human specific vimentin staining confirmed that the newly formed heterotopic bone is of human origin (FIG. 6C)."}, "[7]": {"test": "Necropsy after systemic H-8 injection", "type": "in vivo", "settings": "systemic injection 5, 15, 30 mg/kg/day for 4 weeks"}, "[8]": {"tested_on": "hMSC-TERT", "test": "Adipocyte differentiation (Oil red O, qRT-PCR of adipogenic markers)", "type": "cell-based, human", "settings": "25 μM in adipogenic induction media; Oil red O day 15, qRT-PCR day 10", "procedure": "To determine the effect of H-8 on adipocyte differentiation of hMSC, H-8 was added (25 μM) to the adipogenic induction media (AIM) of hMSC-TERT."}, "[9]": {"tested_on": "human CD14+ mononuclear cells", "test": "Osteoclast formation, count of TRAP-positive multinucleated cells", "type": "cell-based", "settings": "25 μM, day 5 of differentiation", "excerpt": "The present inventors determined the effects of H-8 on osteoclast formation in peripheral blood-derived human CD14+ mononuclear cell cultures."}, "[10]": {"tested_on": "TGFβ signaling in hMSC", "test": "TGFβ signaling, qRT-PCR and western blot", "type": "cell-based, human", "settings": "for effect on H-8 induced Smad2 and Akt phosphorylation: co-treatment with H-8", "excerpt": "(C): Western blot analysis of p-Smad and p-Akt reveled that the enahcing effect of H-8 on osteoblast differentiation of hMSC is mediated through activation of non-canonical TGFβ signaling. (D): SB431542, a selective inhibitor of TGWU activity abolished the enhanced phosphorylation of Akt and smad2 after H-8 treatment.\nTo investigate the mechanisms of the enhancing effects of H-8 on osteoblast differentiation of hMSC, the present inventors performed a DNA microarray analysis of hMSC-TERT under osteogenic culture conditions, in the presence or absence of the H-8 (25 μM). […] In order to identify the pathway that is primarily regulated by H-8 treatment, phosphorylation of canonical and non-canonical TGFβ signaling components was evaluated 5 minutes and 15 minutes after H-8 treatment. The inventors also evaluated the effect of TGFβ3 treatment on H-8 induced phosphorylation of Smad2 and Akt. […] This observation further confirms that the enhancing effect of H-8 on osteoblast differentiation of hMSC is mediated through regulation of TGFβ signaling."}, "[11]": {"tested_on": "hMSC-TERT", "settings": "6 days after induction, hMSC-TERT"}, "[12]": {"target": "T1, protein kinase G (PKG) (Homo sapiens, UniProt Q13976)", "T1 sequence (Q13976 1-671)": "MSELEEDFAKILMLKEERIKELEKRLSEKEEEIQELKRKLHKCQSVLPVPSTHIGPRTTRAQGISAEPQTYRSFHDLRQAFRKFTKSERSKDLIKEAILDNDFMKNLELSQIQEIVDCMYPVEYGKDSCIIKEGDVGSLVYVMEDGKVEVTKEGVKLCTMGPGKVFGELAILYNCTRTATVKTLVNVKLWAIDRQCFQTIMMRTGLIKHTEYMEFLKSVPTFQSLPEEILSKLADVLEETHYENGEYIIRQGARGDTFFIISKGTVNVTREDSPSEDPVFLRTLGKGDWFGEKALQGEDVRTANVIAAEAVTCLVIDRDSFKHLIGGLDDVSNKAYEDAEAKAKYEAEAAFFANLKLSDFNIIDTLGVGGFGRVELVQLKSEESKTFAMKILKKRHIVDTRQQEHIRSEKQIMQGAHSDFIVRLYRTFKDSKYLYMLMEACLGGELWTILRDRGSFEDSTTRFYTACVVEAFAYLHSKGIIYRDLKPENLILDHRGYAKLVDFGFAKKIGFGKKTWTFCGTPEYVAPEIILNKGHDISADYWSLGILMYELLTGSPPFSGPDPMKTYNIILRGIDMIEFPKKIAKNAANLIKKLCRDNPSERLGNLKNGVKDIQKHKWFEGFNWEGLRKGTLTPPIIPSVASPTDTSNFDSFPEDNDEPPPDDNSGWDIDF", "settings": "cited from earlier work"}, "[13]": {"target": "protein kinase C(PKC)", "settings": "cited from earlier work"}, "[14]": {"target": "Myosin Light Chain Kinase (MLCK) (Homo sapiens, UniProt Q15746)", "sequence (Q15746 whole entry)": "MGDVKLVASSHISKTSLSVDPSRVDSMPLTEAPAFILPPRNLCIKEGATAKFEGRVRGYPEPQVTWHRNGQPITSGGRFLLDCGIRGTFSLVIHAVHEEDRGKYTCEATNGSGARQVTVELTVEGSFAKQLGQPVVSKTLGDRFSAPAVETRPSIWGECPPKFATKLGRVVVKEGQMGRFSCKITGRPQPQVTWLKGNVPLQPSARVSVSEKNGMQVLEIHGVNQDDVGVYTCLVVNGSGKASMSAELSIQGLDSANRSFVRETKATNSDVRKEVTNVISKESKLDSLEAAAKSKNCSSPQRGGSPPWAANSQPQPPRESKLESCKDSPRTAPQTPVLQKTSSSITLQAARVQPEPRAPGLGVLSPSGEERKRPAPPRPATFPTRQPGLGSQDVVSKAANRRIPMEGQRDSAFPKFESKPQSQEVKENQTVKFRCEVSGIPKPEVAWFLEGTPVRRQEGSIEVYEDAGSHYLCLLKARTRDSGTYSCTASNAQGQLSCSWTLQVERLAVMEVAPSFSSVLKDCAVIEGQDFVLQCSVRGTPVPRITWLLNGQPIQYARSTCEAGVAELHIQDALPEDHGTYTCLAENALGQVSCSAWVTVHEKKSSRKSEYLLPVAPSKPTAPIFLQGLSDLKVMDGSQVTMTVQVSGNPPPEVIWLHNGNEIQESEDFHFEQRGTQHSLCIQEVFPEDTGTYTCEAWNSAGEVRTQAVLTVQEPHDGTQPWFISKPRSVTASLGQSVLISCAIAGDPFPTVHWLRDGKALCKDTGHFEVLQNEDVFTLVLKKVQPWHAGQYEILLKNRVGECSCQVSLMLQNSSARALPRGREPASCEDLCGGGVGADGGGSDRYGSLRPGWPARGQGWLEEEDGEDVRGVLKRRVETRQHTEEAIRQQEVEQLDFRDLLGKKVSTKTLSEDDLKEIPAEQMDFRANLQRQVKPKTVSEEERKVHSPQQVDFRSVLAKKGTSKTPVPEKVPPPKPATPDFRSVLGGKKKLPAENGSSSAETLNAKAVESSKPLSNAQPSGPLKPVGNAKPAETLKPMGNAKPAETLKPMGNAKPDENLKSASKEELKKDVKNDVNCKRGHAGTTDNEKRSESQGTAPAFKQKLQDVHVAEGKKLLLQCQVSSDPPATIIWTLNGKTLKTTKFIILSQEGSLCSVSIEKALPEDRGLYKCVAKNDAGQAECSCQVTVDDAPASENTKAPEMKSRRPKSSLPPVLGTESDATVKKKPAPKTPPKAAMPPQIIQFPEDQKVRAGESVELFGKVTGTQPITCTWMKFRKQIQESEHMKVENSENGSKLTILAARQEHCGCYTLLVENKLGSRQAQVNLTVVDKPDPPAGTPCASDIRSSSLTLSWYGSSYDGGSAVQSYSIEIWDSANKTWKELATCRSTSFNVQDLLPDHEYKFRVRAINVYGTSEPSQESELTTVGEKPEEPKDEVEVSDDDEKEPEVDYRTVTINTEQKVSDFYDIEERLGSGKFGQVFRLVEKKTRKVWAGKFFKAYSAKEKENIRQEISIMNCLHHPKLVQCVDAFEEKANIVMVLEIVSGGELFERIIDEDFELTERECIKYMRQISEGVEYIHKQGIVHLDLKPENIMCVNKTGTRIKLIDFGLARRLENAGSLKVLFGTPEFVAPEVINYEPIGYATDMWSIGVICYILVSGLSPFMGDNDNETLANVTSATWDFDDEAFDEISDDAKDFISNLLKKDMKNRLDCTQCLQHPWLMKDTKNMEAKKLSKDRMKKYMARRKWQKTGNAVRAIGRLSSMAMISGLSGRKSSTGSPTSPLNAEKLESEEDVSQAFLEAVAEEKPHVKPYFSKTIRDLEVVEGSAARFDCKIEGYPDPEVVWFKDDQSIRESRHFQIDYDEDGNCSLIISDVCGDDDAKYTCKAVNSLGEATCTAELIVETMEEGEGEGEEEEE", "settings": "cited from earlier work"}, "[15]": {"tested_on": "osteoclast", "settings": "table 1 of Soerensen et al; cited from earlier work"}, "[16]": {"settings": "5 and 15 minutes after treatment"}, "[17]": {"settings": "1 μM inhibitor in osteogenic inducing media"}, "[18]": {"settings": "10 μM inhibitor in osteogenic inducing media"}}, "note": "Where two headings read alike, the source gives them in different places.", "data": [{"molecule": "CNCCNS(=O)(=O)c1cccc2cnccc12", "note": "[H-8, N-[2-(methylamino)ethyl]-5-isoquinolinesulfonamide]", "values": [{"measurement": "stage of differentiation at which H-8 is needed (matrix mineralization)", "setting": "[1]; 25 μM added at different time points during 12-days period", "value": "needed during the first 9 days to exert its effects"}, {"measurement": "gene expression of osteogenic markers (qRT-PCR)", "setting": "[1]; 25 μM, 9-days in vitro hMSC osteogenic differentiation", "value": "enhanced gene expression of early and late osteogenic markers"}, {"measurement": "ALP enhancing effect in serum free induction media", "setting": "[1]; 25 μM, serum free induction media", "value": "persists in the absence of serum"}, {"measurement": "optimal concentration for highest enhancement of osteoblast differentiation of hMSC", "setting": "[1]; based on in vitro studies", "value": "20 to 30", "unit": "µM"}, {"measurement": "dependence of ALP enhancing effect on differentiation inducers", "setting": "[1]; each component of osteoblastic induction media removed", "value": "not dependent on differentiation inducers"}, {"measurement": "ALP activity", "setting": "[1]; hMSC-TERT, OIM, dose range 1-30 μM, day 6, dose-dependent", "value": "significantly increased"}, {"measurement": "matrix mineralization (alizarin red staining)", "setting": "[1]; hMSC-TERT, OIM, dose range 1-30 μM, day 12, dose-dependent", "value": "significantly increased"}, {"measurement": "ALP activity", "setting": "[2]; day 6, dose-dependent", "value": "significantly increased"}, {"measurement": "matrix mineralization (alizarin red staining)", "setting": "[2]; day 12, dose-dependent", "value": "significantly increased"}, {"measurement": "matrix mineralization (alizarin red staining)", "setting": "[3]; 25 μM, day 10 of differentiation", "value": "enhanced matrix mineralization"}, {"measurement": "ALP activity", "setting": "[3]; day 6 of osteoblastic differentiation", "value": "dose dependent enhancing effect"}, {"measurement": "activated Caspase-3 (western blot), hMSC survival", "setting": "[4]", "value": "reduced level of activated Caspase-3"}, {"measurement": "hMSC survival in vivo (luminescent imaging)", "setting": "[5]", "value": "increased hMSC survival"}, {"measurement": "heterotopic bone formation, cells pre-treated in vitro", "setting": "[6]; hMSC-TERT treated 25 μM for 7 days, implanted subcutaneously, histology after 8 weeks", "value": "enhanced amount of heterotopic bone formation"}, {"measurement": "heterotopic bone formation, systemic treatment", "setting": "[6]; intraperitoneally 30 mg/kg/day for 4 weeks after implantation of HA/TCP-hMSC-TERT", "value": "increased amount of heterotopic bone formation"}, {"measurement": "necropsy, toxic effects", "setting": "[7]", "value": "all tissues looked normal"}, {"measurement": "adipocyte differentiation of hMSC", "setting": "[8]", "value": "does not affect adipocyte differentiation"}, {"measurement": "osteoclast formation (TRAP-positive multinucleated cells)", "setting": "[9]", "value": "did not affect osteoclast formation"}, {"measurement": "Akt phosphorylation (western blot)", "setting": "[10]; [16]", "value": "enhanced Akt phosphorylation at both 5 and 15 minutes"}, {"measurement": "Smad2 phosphorylation (western blot)", "setting": "[10]; [16]", "value": "enhanced Smad2 phosphorylation was detected only 15 minutes after H-8 treatment"}, {"measurement": "Relative ALP activity", "setting": "[11]; [17]", "value": 1.701}, {"measurement": "Relative ALP activity", "setting": "[11]; [18]", "value": 1.87}, {"measurement": "IC50", "setting": "[12]", "value": 0.48, "unit": "µM"}, {"measurement": "IC50", "setting": "[13]", "value": 15, "unit": "µM"}, {"measurement": "IC50", "setting": "[14]", "value": 68, "unit": "µM"}, {"measurement": "osteoclastic acid secretion", "setting": "[15]", "value": "no effect on osteoclastic acid secretion"}]}, {"molecule": "NC(=O)c1ccc(-c2nc(-c3ccccn3)c(-c3ccc4c(c3)OCO4)[nH]2)cc1", "note": "[SB431542]", "values": [{"measurement": "effect on H-8 enhanced osteoblast differentiation (ALP activity, matrix mineralization)", "setting": "[1]; co-treatment with H-8, hMSC", "value": "blunted the enhancing effect of H-8 on osteoblast differentiation of hMSC"}, {"measurement": "effect on H-8 induced Smad2 and Akt phosphorylation", "setting": "[10]", "value": "abolished the enhancing effect of H-8 on Smad2 and Akt phosphorylation"}]}, {"molecule": "Indirubin-3′-monoxime", "values": [{"measurement": "Relative ALP activity", "setting": "[11]; [17]", "value": 0.2589}, {"measurement": "Relative ALP activity", "setting": "[11]; [18]", "value": 0.3697}]}, {"molecule": "TGFβ3: Transforming growth factor β3, added to hMSC together with H-8 (protein, UniProt P10600 301-412, looked up) Transforming growth factor …: ALDTNYCFRNLEENCCVRPLYIDFRQDLGWKWVHEPKGYYANFCSGPCPYLRSADTTHSTVLGLYNTLNPEASASPCCVPQDLEPLTILYYVGRTPKVEQLSNMVVKSCKCS", "values": [{"measurement": "effect on H-8 induced Smad2 and Akt phosphorylation", "setting": "[10]", "value": "enhancing effect on H-8 induced Akt and Smad2 phosphorylation"}]}]}
